Measured values as given in US20230114728A1 (Venatorx Pharmaceuticals, Inc., priority 2019, published 2023).
In brackets after ≈: the same amount, converted by molar mass.

What was measured:
[1] = tested on: N. gonorrhoeae H041; experiment: Liquid broth MIC in Fastidious broth; assay type: cell-based; details: Neisseria gonorrhoeae, H041, read-out: Minimum Inhibitory Concentration, N. gonorrhoeae H041
Method in brief: (§1)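 Strains bearing mosaic PBP2 grown 24 h on chocolate agar (36° C, 5% CO2), suspended in saline and added to 2-fold compound dilutions in Fastidious broth at 5×10^5 CFU/mL. After ~24 hours at 36° C with 5% CO2, MIC taken visually as lowest well with <10% growth relative to full growth.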

[2] = tested on: N. gonorrhoeae WHO G; experiment: Liquid broth MIC in Fastidious broth; assay type: cell-based; details: Neisseria gonorrhoeae; N. gonorrhoeae strain WHO G; Fastidious broth; read-out: Minimum Inhibitory Concentration, N. gonorrhoeae WHO G
Method in brief: (§2)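 Colonies were swabbed from chocolate agar after 24 h growth and standardised by optical density at 600 nm. Compounds were serially diluted twofold in Fastidious broth, and bacteria added to give 5×10^5 CFU/mL. After about 24 h at 36 °C in 5% CO2, the lowest concentration allowing under 10% growth was taken as MIC.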

[3] = tested on: N. gonorrhoeae WHO K; experiment: Liquid broth MIC in Fastidious broth; assay type: cell-based; details: Neisseria gonorrhoeae, read-out: Minimum Inhibitory Concentration, N. gonorrhoeae WHO K
Method in brief: as §1

[4] = tested on: N. gonorrhoeae WHO Q; experiment: Liquid broth MIC in Fastidious broth; assay type: cell-based; details: Neisseria gonorrhoeae, read-out: Minimum Inhibitory Concentration, N. gonorrhoeae WHO Q
Method in brief: as §1

[5] = tested on: N. gonorrhoeae ATCC 49226; experiment: Liquid broth MIC in Fastidious broth; assay type: cell-based; details: Neisseria gonorrhoeae, ATCC49226; N. gonorrhoeae strain ATCC 49226; Fastidious broth; read-out: Minimum Inhibitory Concentration, N. gonorrhoeae ATCC 49226
Method in brief: as §2

[6] = tested on: N. gonorrhoeae WHO Z; experiment: Liquid broth MIC in Fastidious broth; assay type: cell-based; details: Neisseria gonorrhoeae, read-out: Minimum Inhibitory Concentration, N. gonorrhoeae WHO Z
Method in brief: as §1

[7] = tested on: N. gonorrhoeae FA1090; experiment: Liquid broth MIC in Fastidious broth; assay type: cell-based; details: Neisseria gonorrhoeae; N. gonorrhoeae strain FA1090; Fastidious broth; read-out: Minimum Inhibitory Concentration, N. gonorrhoeae FA1090
Method in brief: as §2

[8] = biological target: T1, E. coli K12 PBP3 (Escherichia coli, UniProt P0AD68); experiment: biochemical; assay type: binding
T1 construct: made in house
Method in brief: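 Fluorescence polarization (ex 490/em 520 nm) competition of inhibitors against Bocillin-FL at 0.1 μM, read up to 60 min. Final PBP levels: E. coli PBP3 1.5 μM; A. baumannii PBP2 2.5 μM, PBP3 0.2 μM in Tris pH 8.0/NaCl/glycerol/Tween 20; N. gonorrhoeae PBP2 […] in Hepes pH 8.0/NaCl/glycerol. EC50 = concentration halving PBP-bound Bocillin-FL.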

[9] = biological target: T2, P. aeruginosa PBP3 (Pseudomonas aeruginosa, UniProt G3XD46); experiment: Bocillin-FL fluorescence polarization competition binding assay, P. aeruginosa PBP3; details: fluorescence polarization competition binding assay using Bocillin-FL
T2 construct: made in house
Method in brief: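 Binding of boronic acid inhibitors to purified Pseudomonas aeruginosa (PA01) PBP3 was measured by fluorescence polarization competition with Bocillin-FL, a fluorescent penicillin V. Reactions of 80 μl contained 0.75 μM PBP3 and 0.1 μM Bocillin-FL in 50 mM Hepes (pH 8.0), 300 mM NaCl and 5% (v/v) glycerol, in black 384-well plates. FP (Excitation 490 nm, Emission 520 nm) was read for up to 60 minutes. EC50 is the concentration that halves PBP-bound Bocillin-FL.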

T2 sequence (G3XD46 whole entry): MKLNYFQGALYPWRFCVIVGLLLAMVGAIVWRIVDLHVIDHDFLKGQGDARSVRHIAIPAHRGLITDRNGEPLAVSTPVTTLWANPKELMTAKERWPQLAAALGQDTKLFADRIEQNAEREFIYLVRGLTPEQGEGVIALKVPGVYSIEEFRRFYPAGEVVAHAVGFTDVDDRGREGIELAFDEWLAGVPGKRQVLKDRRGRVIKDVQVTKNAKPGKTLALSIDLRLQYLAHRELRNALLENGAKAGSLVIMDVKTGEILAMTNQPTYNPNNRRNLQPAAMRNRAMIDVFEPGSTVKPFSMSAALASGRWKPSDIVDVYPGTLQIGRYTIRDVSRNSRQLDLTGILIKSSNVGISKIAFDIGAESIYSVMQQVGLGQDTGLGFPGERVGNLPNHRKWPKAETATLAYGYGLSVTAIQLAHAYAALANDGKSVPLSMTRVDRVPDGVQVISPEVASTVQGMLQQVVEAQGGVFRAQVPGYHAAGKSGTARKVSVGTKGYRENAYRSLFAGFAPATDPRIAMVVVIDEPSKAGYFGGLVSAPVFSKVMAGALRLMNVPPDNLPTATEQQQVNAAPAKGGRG
T1 sequence (P0AD68 1-577): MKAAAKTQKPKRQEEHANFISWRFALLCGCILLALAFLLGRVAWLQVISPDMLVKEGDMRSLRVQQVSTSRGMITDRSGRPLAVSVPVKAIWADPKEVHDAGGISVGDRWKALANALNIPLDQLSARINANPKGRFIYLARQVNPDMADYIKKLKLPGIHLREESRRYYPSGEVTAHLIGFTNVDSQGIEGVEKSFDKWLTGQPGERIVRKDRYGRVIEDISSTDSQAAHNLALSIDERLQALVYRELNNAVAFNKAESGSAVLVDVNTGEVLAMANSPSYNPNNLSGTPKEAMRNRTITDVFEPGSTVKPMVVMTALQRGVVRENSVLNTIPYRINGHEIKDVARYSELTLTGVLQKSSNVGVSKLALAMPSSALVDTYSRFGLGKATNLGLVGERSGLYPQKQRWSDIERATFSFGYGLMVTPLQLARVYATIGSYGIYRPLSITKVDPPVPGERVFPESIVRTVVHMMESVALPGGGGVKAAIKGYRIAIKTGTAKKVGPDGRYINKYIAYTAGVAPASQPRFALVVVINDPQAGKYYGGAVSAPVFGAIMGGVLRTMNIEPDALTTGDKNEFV

| SMILES | MIC [1] [µg/mL] | MIC [2] [µg/mL] | MIC [3] [µg/mL] | MIC [4] [µg/mL] | MIC [5] [µg/mL] | MIC [6] [µg/mL] | MIC [7] [µg/mL] | EC50 [8] [µM] | P. aeruginosa PBP3 Potency [9] |
| --- | --- | --- | --- | --- | --- | --- | --- | --- | --- |
| O=C(O)c1cccc2c1OB(O)[C@@H](NC(=O)C(NC(=O)N1CCN(CCF)C(=O)C1=O)c1c(F)cc(O)cc1F)C2 (mixture of isomers) [Example 119, (3R)-3-(2-(2,6-difluoro-4-hydroxyphenyl)-2-(4-(2-fluoroethyl)-2,3-dioxopiperazine-1-carboxamido)acetamido)-2-hydroxy-3,4-dihydro-2H-benzo[e][1,2]oxaborinine-8-carboxylic acid] | > 64 | 1 to 2 (≈ 1.73 to 3.46 µM) | 16 to 32 (≈ 27.7 to 55.3 µM) | 16 to 32 (≈ 27.7 to 55.3 µM) | 16 to 32 (≈ 27.7 to 55.3 µM) | 4 to 8 (≈ 6.92 to 13.8 µM) | 0.25 to 0.5 (≈ 0.432 to 0.865 µM) | < 30 | – |
| NCCN1CCN(C(=O)N[C@H](C(=O)N[C@H]2Cc3cccc(C(=O)O)c3OB2O)c2c(F)cc(O)cc2F)C(=O)C1=O (single isomer, unassigned) [Example 110] | > 64 | > 64 | > 64 | > 64 | > 64 | > 64 | 16 to 32 (≈ 27.8 to 55.6 µM) | 30 to 500 | B (B represents a potency between 30 μM and 500 μM inclusive) |
| NCCN1CCN(C(=O)N[C@@H](C(=O)N[C@H]2Cc3cccc(C(=O)O)c3OB2O)c2c(F)cc(O)cc2F)C(=O)C1=O (single isomer, unassigned) [Example 111] | > 64 | 4 to 8 (≈ 6.95 to 13.9 µM) | > 64 | > 64 | 16 to 32 (≈ 27.8 to 55.6 µM) | > 64 | 1 to 2 (≈ 1.74 to 3.48 µM) | < 30 | D (D represents a potency <10 μM) |
| NCCN1CCN(C(=O)N[C@@H](C(=O)N[C@H]2Cc3cccc(C(=O)O)c3OB2O)c2cccc(NS(N)(=O)=O)c2)C(=O)C1=O (single isomer, unassigned) [Example 114] | > 64 | 16 to 32 (≈ 25.9 to 51.8 µM) | > 64 | > 64 | > 64 | > 64 | 4 to 8 (≈ 6.48 to 13 µM) | 30 to 500 | D (D represents a potency <10 μM) |
| NCCN1CCN(C(=O)N[C@H](C(=O)N[C@H]2Cc3cccc(C(=O)O)c3OB2O)c2cccc(NS(N)(=O)=O)c2)C(=O)C1=O (single isomer, unassigned) [Example 115] | > 64 | > 64 | > 64 | > 64 | > 64 | > 64 | 4 to 8 (≈ 6.48 to 13 µM) | 30 to 500 | C (C represents a potency between 10 and 30 μM) |
| NC1(CN2CCN(C(=O)N[C@@H](C(=O)N[C@H]3Cc4cccc(C(=O)O)c4OB3O)c3c(F)cc(O)cc3F)C(=O)C2=O)CC1 (single isomer, unassigned) [Example 121] | > 64 | 16 to 32 (≈ 26.6 to 53.2 µM) | > 64 | > 64 | 16 to 32 (≈ 26.6 to 53.2 µM) | > 64 | 1 to 2 (≈ 1.66 to 3.33 µM) | < 30 | D (D represents a potency <10 μM) |
| NC1(CN2CCN(C(=O)N[C@H](C(=O)N[C@H]3Cc4cccc(C(=O)O)c4OB3O)c3c(F)cc(O)cc3F)C(=O)C2=O)CC1 (single isomer, unassigned) [Example 122] | > 64 | > 64 | > 64 | > 64 | > 64 | > 64 | 4 to 8 (≈ 6.65 to 13.3 µM) | < 30 | D (D represents a potency <10 μM) |
| CCN1CCN(C(=O)N[C@H](C(=O)N[C@H]2Cc3ccc(F)c(C(=O)O)c3OB2O)c2c(F)cc(O)c(O)c2Cl)C(=O)C1=O (single isomer, unassigned) [Example 125] | > 64 | > 64 | > 64 | > 64 | > 64 | > 64 | > 64 | > 500 | A (A represents a potency of >500 μM) |
| O=C(O)c1cccc2c1OB(O)[C@@H](NC(=O)[C@H](NC(=O)N1CCN(CCF)C(=O)C1=O)c1c(F)cc(O)cc1F)C2 (single isomer, unassigned) [Example 126] | 16 to 32 (≈ 27.7 to 55.3 µM) | 1 to 2 (≈ 1.73 to 3.46 µM) | 16 to 32 (≈ 27.7 to 55.3 µM) | 4 to 8 (≈ 6.92 to 13.8 µM) | 4 to 8 (≈ 6.92 to 13.8 µM) | 4 to 8 (≈ 6.92 to 13.8 µM) | < 0.125 | < 30 | D (D represents a potency <10 μM) |
| NCCN1CCN(C(=O)N[C@@H](C(=O)N[C@H]2Cc3ccc(F)c(C(=O)O)c3OB2O)c2c(F)cc(O)cc2F)C(=O)C1=O (single isomer, unassigned) [Example 127] | > 64 | 16 to 32 (≈ 27 to 53.9 µM) | > 64 | > 64 | 16 to 32 (≈ 27 to 53.9 µM) | > 64 | 4 to 8 (≈ 6.74 to 13.5 µM) | < 30 | D (D represents a potency <10 μM) |
| NCCN1CCN(C(=O)N[C@H](C(=O)N[C@H]2Cc3ccc(F)c(C(=O)O)c3OB2O)c2c(F)cc(O)cc2F)C(=O)C1=O (single isomer, unassigned) [Example 128] | > 64 | > 64 | > 64 | > 64 | > 64 | > 64 | 16 to 32 (≈ 27 to 53.9 µM) | 30 to 500 | C (C represents a potency between 10 and 30 μM) |
| NC1(CN2CCN(C(=O)N[C@@H](C(=O)N[C@H]3Cc4ccc(F)c(C(=O)O)c4OB3O)c3cc(F)c(O)c(O)c3Cl)C(=O)C2=O)CC1 (single isomer, unassigned) [Example 133] | > 64 | 16 to 32 (≈ 24.5 to 49.1 µM) | > 64 | > 64 | > 64 | > 64 | 16 to 32 (≈ 24.5 to 49.1 µM) | 30 to 500 | D (D represents a potency <10 μM) |
| NCCN1CCN(C(=O)N[C@@H](C(=O)N[C@H]2Cc3cccc(C(=O)O)c3OB2O)c2cc(Cl)c(O)c(Cl)c2)C(=O)C1=O (single isomer, unassigned) [Example 166] | > 64 | 4 to 8 (≈ 6.58 to 13.2 µM) | > 64 | 16 to 32 (≈ 26.3 to 52.6 µM) | 16 to 32 (≈ 26.3 to 52.6 µM) | 16 to 32 (≈ 26.3 to 52.6 µM) | 0.25 to 0.5 (≈ 0.411 to 0.822 µM) | < 30 | – |
